Patent EP0041644B1 (priority 1980, dated 1981)

Columns and labels:
Format in all cases: in vivo, mice
L-1210 Leukemia = L-1210 Leukemia (Table IX)
Description: The sodium and ammonium salts of the present invention were tested against transplantable mouse tumors as indicated below.

B16 Melanoma = B16 Melanoma - Test 3 (sc trocar fragments)
Lewis Lung Carcinoma = Lewis Lung Carcinoma - Test 1 (ip, delayed therapy)

N.N.[Cl][Pt][Cl] [Cis-DDP, cis-diammine dichloroplatinum (II)]
Average Weight Change,g (L-1210 Leukemia; 0.4 mg/kg/inj ip, qd 1→9): -0.6 g
Effect MST % T/C (L-1210 Leukemia; 0.4 mg/kg/inj ip, qd 1→9): 108 % T/C
MST Days (L-1210 Leukemia; 0.4 mg/kg/inj ip, qd 1→9): 7.0 days
Survivors Day 5(45) (L-1210 Leukemia; 0.4 mg/kg/inj ip, qd 1→9): 6/6
Average Weight Change,g (L-1210 Leukemia; 0.8 mg/kg/inj ip, qd 1→9): -2.1 g
Effect MST % T/C (L-1210 Leukemia; 0.8 mg/kg/inj ip, qd 1→9): 138 % T/C
MST Days (L-1210 Leukemia; 0.8 mg/kg/inj ip, qd 1→9): 9.0 days
Survivors Day 5(45) (L-1210 Leukemia; 0.8 mg/kg/inj ip, qd 1→9): 6/6
Average Weight Change,g (L-1210 Leukemia; 1.6 mg/kg/inj ip, qd 1→9): -2.9 g
Effect MST % T/C (L-1210 Leukemia; 1.6 mg/kg/inj ip, qd 1→9): 154 % T/C
MST Days (L-1210 Leukemia; 1.6 mg/kg/inj ip, qd 1→9): 10.0 days
Survivors Day 5(45) (L-1210 Leukemia; 1.6 mg/kg/inj ip, qd 1→9): 6/6
Average Weight Change,g (L-1210 Leukemia; 2 mg/kg/inj ip, Day 1): -0.7 g
Effect MST % T/C (L-1210 Leukemia; 2 mg/kg/inj ip, Day 1): 138 % T/C
MST Days (L-1210 Leukemia; 2 mg/kg/inj ip, Day 1): 9.0 days
Survivors Day 5(45) (L-1210 Leukemia; 2 mg/kg/inj ip, Day 1): 6/6
Average Weight Change,g (L-1210 Leukemia; 2.4 mg/kg/inj ip, qd 1→9): -3.8 g
Effect MST % T/C (L-1210 Leukemia; 2.4 mg/kg/inj ip, qd 1→9): 177 % T/C
MST Days (L-1210 Leukemia; 2.4 mg/kg/inj ip, qd 1→9): 11.5 days
Survivors Day 5(45) (L-1210 Leukemia; 2.4 mg/kg/inj ip, qd 1→9): 6/6
Average Weight Change,g (L-1210 Leukemia; 4 mg/kg/inj ip, Day 1): -2.1 g
Effect MST % T/C (L-1210 Leukemia; 4 mg/kg/inj ip, Day 1): 123 % T/C
MST Days (L-1210 Leukemia; 4 mg/kg/inj ip, Day 1): 8.0 days
Survivors Day 5(45) (L-1210 Leukemia; 4 mg/kg/inj ip, Day 1): 6/6
Average Weight Change,g (L-1210 Leukemia; 6 mg/kg/inj ip, Day 1): -3.7 g
Effect MST % T/C (L-1210 Leukemia; 6 mg/kg/inj ip, Day 1): 154 % T/C
MST Days (L-1210 Leukemia; 6 mg/kg/inj ip, Day 1): 10.0 days
Survivors Day 5(45) (L-1210 Leukemia; 6 mg/kg/inj ip, Day 1): 6/6
Average Weight Change,g (L-1210 Leukemia; 8 mg/kg/inj ip, Day 1): -3.4 g
Effect MST % T/C (L-1210 Leukemia; 8 mg/kg/inj ip, Day 1): 185 % T/C
MST Days (L-1210 Leukemia; 8 mg/kg/inj ip, Day 1): 12.0 days
Survivors Day 5(45) (L-1210 Leukemia; 8 mg/kg/inj ip, Day 1): 6/6
maximum T/C (L-1210 Leukemia; qd 1→9 (cis-DDP 2.4, parent 8 and 12, sodium salt 12 mg/kg/injection)): 177%
maximum T/C (L-1210 Leukemia; single ip injection at maximum tolerated dose (cis-DDP 8 mg/kg, the two others 36 mg/kg)): 185%
Average Weight Change (B16 Melanoma; 0.8 mg/kg/inj ip, qd 1→9): -0.4 g
Effect MST %TC (B16 Melanoma; 0.8 mg/kg/inj ip, qd 1→9): 113 %TC
MST Days (B16 Melanoma; 0.8 mg/kg/inj ip, qd 1→9): 34.5 days
Average Weight Change (B16 Melanoma; 1.6 mg/kg/inj ip, qd 1→9): -2.4 g
Effect MST %TC (B16 Melanoma; 1.6 mg/kg/inj ip, qd 1→9): 118 %TC
MST Days (B16 Melanoma; 1.6 mg/kg/inj ip, qd 1→9): 36.0 days
Average Weight Change (B16 Melanoma; 2.4 mg/kg/inj ip, qd 1→9): -3.5 g
Effect MST %TC (B16 Melanoma; 2.4 mg/kg/inj ip, qd 1→9): 97 %TC
MST Days (B16 Melanoma; 2.4 mg/kg/inj ip, qd 1→9): 29.5 days
Average Weight Change (B16 Melanoma; 4 mg/kg/inj iv, d.1, 5 & 9): -0.6 g
Effect MST %TC (B16 Melanoma; 4 mg/kg/inj iv, d.1, 5 & 9): 156 %TC
MST Days (B16 Melanoma; 4 mg/kg/inj iv, d.1, 5 & 9): 47.5 days
Average Weight Change (B16 Melanoma; 6 mg/kg/inj iv, d.1, 5 & 9): -2.2 g
Effect MST %TC (B16 Melanoma; 6 mg/kg/inj iv, d.1, 5 & 9): 131 %TC
MST Days (B16 Melanoma; 6 mg/kg/inj iv, d.1, 5 & 9): 40.0 days
Average Weight Change (B16 Melanoma; 8 mg/kg/inj iv, d.1, 5 & 9): -2.8 g
Effect MST %TC (B16 Melanoma; 8 mg/kg/inj iv, d.1, 5 & 9): 125 %TC
MST Days (B16 Melanoma; 8 mg/kg/inj iv, d.1, 5 & 9): 38.0 days
Survivors Day 10 (60) (B16 Melanoma; 8 mg/kg/inj iv, d.1, 5 & 9): 9/10
T/C (B16 Melanoma; given ip, sc-implanted B16 melanoma): inactive
maximum T/C (B16 Melanoma; given iv, sc-implanted B16 melanoma): 156%
Av. Wt. Change,g Day 9 (Lewis Lung Carcinoma; 0.4 mg/kg/inj ip, qd 5→13): -0.4 g
Effect MST %TC (Lewis Lung Carcinoma; 0.4 mg/kg/inj ip, qd 5→13): 124 %TC
MST Days (Lewis Lung Carcinoma; 0.4 mg/kg/inj ip, qd 5→13): 15.5 days
Av. Wt. Change,g Day 9 (Lewis Lung Carcinoma; 0.8 mg/kg/inj ip, qd 5→13): -0.6 g
Effect MST %TC (Lewis Lung Carcinoma; 0.8 mg/kg/inj ip, qd 5→13): 136 %TC
MST Days (Lewis Lung Carcinoma; 0.8 mg/kg/inj ip, qd 5→13): 17.0 days
Av. Wt. Change,g Day 9 (Lewis Lung Carcinoma; 1.6 mg/kg/inj ip, qd 5→13): -1.8 g
Effect MST %TC (Lewis Lung Carcinoma; 1.6 mg/kg/inj ip, qd 5→13): 184 %TC
MST Days (Lewis Lung Carcinoma; 1.6 mg/kg/inj ip, qd 5→13): 23.0 days
Av. Wt. Change,g Day 9 (Lewis Lung Carcinoma; 2 mg/kg/inj ip, d. 5, 9&13): +0.8 g
Effect MST %TC (Lewis Lung Carcinoma; 2 mg/kg/inj ip, d. 5, 9&13): 152 %TC
MST Days (Lewis Lung Carcinoma; 2 mg/kg/inj ip, d. 5, 9&13): 19.0 days
Av. Wt. Change,g Day 9 (Lewis Lung Carcinoma; 2 mg/kg/inj iv, d. 5,9&13): +0.6 g
Effect MST %TC (Lewis Lung Carcinoma; 2 mg/kg/inj iv, d. 5,9&13): 104 %TC
MST Days (Lewis Lung Carcinoma; 2 mg/kg/inj iv, d. 5,9&13): 13.0 days
Av. Wt. Change,g Day 9 (Lewis Lung Carcinoma; 2.4 mg/kg/inj ip, qd 5→13): -2.4 g
Effect MST %TC (Lewis Lung Carcinoma; 2.4 mg/kg/inj ip, qd 5→13): 212 %TC
MST Days (Lewis Lung Carcinoma; 2.4 mg/kg/inj ip, qd 5→13): 26.5 days
Av. Wt. Change,g Day 9 (Lewis Lung Carcinoma; 4 mg/kg/inj ip, d. 5, 9&13): -0.3 g
Effect MST %TC (Lewis Lung Carcinoma; 4 mg/kg/inj ip, d. 5, 9&13): 168 %TC
MST Days (Lewis Lung Carcinoma; 4 mg/kg/inj ip, d. 5, 9&13): 21.0 days
Av. Wt. Change,g Day 9 (Lewis Lung Carcinoma; 4 mg/kg/inj iv, d. 5,9&13): -0.7 g
Effect MST %TC (Lewis Lung Carcinoma; 4 mg/kg/inj iv, d. 5,9&13): 120 %TC
MST Days (Lewis Lung Carcinoma; 4 mg/kg/inj iv, d. 5,9&13): 15.0 days
Av. Wt. Change,g Day 9 (Lewis Lung Carcinoma; 6 mg/kg/inj ip, d. 5, 9&13): -0.8 g
Effect MST %TC (Lewis Lung Carcinoma; 6 mg/kg/inj ip, d. 5, 9&13): 220 %TC
MST Days (Lewis Lung Carcinoma; 6 mg/kg/inj ip, d. 5, 9&13): 27.5 days
Av. Wt. Change,g Day 9 (Lewis Lung Carcinoma; 6 mg/kg/inj iv, d. 5,9&13): -1.1 g
Effect MST %TC (Lewis Lung Carcinoma; 6 mg/kg/inj iv, d. 5,9&13): 108 %TC
MST Days (Lewis Lung Carcinoma; 6 mg/kg/inj iv, d. 5,9&13): 13.5 days
Av. Wt. Change,g Day 9 (Lewis Lung Carcinoma; 8 mg/kg/inj ip, d. 5, 9&13): -2.7 g
